In US20170129903A1, “COMPOUNDS COMPRISING 1,1a,2,5a-TETRAHYDROSPIRO[INDOLE-3,2a-PYRROLE]-2,5a-DIONE SYSTEM AS INHIBITORS P53-MDM2 PROTEIN-PROTEIN INTERACTION” (ADAMED SP. Z O.O., priority 2014, published 2017) one finds IC50 and Ki data, which are given here for 21 compounds.

The test system of assay [1] is SJSA-1 osteosarcoma cell line. Put plainly: MTT cell viability assay. The class given is cell-based. Particulars: Homo sapiens, SJSA-1, 72 h, 72 h incubation, average of 2-5 experiments. The procedure:
The effect of the invented p53-Mdm2 inhibitors on cell viability has been assessed using MTT assay. It is a colorimetric assay that measures conversion of tetrazolium ring of the soluble yellow dye (MTT) into insoluble purple formazan. This process is catalysed solely in mitochondrial dehydrogenases of living cells.
Cells were seeded on 96-well plates and then treated with successive dilutions of tested compounds. After 72 h incubation, MTT was added to the final concentration 0.5 mg/ml. The cells were further incubated for the next 4 h. Then the solution was drained and the remaining formazan crystals were dissolved in 100 μl DMSO. […] All the MTT experiments were independently repeated 2-5 times. Dose-dependent binding curves and IC50 values were calculated using GraphPad Prism 5.
In general terms: Tetrazolium assays rely on reduction of a dye to a coloured formazan, in cell work by metabolically active cells.

Assay [2] has as its target T1, p53-Mdm2 interaction (N-terminal domain of Mdm2 protein, amino acids 1-111) (Homo sapiens, UniProt Q00987).
T1 construct: N-terminal domain of Mdm2 protein (amino acids 1-111)
Put plainly: Fluorescence polarization (FP) binding assay of p53-Mdm2 interaction. Particulars: FP assay, 130 nM Mdm2, FAM-labelled p53 peptide; Ki transformed from IC50 using Kenakin equation. In outline: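 N-terminal Mdm2 (aa 1-111) at 130 nM preincubated 15 min with compound (5% DMSO) in PBS, 0.1% CHAPS, 5 mM DTT, then […] FAM-labelled p53 peptide added. Polarization read after 90 min at room temperature (ex 470/em 520 nm). IC50 converted to Ki by Kenakin equation.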
(In fluorescence polarisation assays a small probe gives low polarisation when free and higher when bound to something large.)

T1 sequence (Q00987 1-111): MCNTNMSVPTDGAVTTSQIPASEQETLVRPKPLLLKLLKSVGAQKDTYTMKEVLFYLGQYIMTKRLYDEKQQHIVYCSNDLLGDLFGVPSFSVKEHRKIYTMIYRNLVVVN

A word on the IC50: it is the concentration that gives 50% inhibition. What is called Ki is the equilibrium dissociation constant of an inhibitor or competing ligand from its target. Read a low Ki as a stronger hold on the target. In turn, `COC(=O)c1ccc(OC)c(-n2nc3c(c2C(C)C)C2(C(=O)Nc4cc(Cl)ccc42)N(c2cc(Cl)ccc2O)C3=O)c1` (stereo not drawn) [Compound 79, methyl 3-[6-chloro-5′-(5-chloro-2-hydroxyphenyl)-2,6′-dioxo-3′-(propan-2-yl)-1,2,5′,6′-tetrahydro-2′H-spiro[indole-3,4′-pyrrolo[3,4-c]pyrazole]-2′-yl]-4-methoxybenzoate] displayed an IC50 in assay [1] of 1.02 µM. In assay [2], this compound came in with a Ki of 5.7 nM.
The like results for `COc1ccc(C(N)=O)cc1-n1cc2c(c1C(C)C)C1(C(=O)Nc3cc(Cl)ccc31)N(c1cc(Cl)ccc1C)C2=O` (stereo not drawn) [Compound 95, 3-[6-chloro-2′-(5-chloro-2-methylphenyl)-2,3′-dioxo-6′-(propan-2-yl)-1,2,3′,5′-tetrahydro-2′H-spiro[indole-3,1′-pyrrolo [3,4-c]pyrrole]-5′-yl]-4-methoxybenzamide] were, in that order, 0.3 µM and 1.8 nM.
The matching figures for `COc1ccccc1-n1nc2c(c1C(C)C)C1(C(=O)Nc3cc(Cl)ccc31)N(c1cccc(Cl)c1)C2=O` (stereo not drawn) [Compound 27, 6-chloro-5′-(3-chlorophenyl)-2′-(2-methoxyphenyl)-3′-(propan-2-yl)-1,2,5′,6′-tetrahydro-2′H-spiro[indole-3,4′-pyrrolo [3,4-c]pyrazole]-2,6′-dione]: 1.07 µM and 4.3 nM.
On to `COc1ccc(Cl)cc1N1C(=O)c2nn(-c3ccccc3OC)c(C(C)C)c2C12C(=O)Nc1cc(Cl)ccc12` (stereo not drawn) [Compound 30, 6-chloro-5′-(5-chloro-2-methoxyphenyl)-2′-(2-methoxyphenyl)-3′-(propan-2-yl)-1,2,5′,6′-tetrahydro-2′H-spiro[indole-3,4′-pyrrolo[3,4-c]pyrazole]-2,6′-dione], for which the IC50 in assay [1] was found to be 1.36 µM. For the same compound, the Ki in assay [2] worked out at 8.2 nM.
The like results for `COc1cc2[nH]c(=O)[nH]c2cc1-n1cc2c(c1C(C)C)C1(C(=O)Nc3cc(Cl)ccc31)N(c1cc(Cl)ccc1C)C2=O` (stereo not drawn) [Compound 101, 6-chloro-2′-(5-chloro-2-methylphenyl)-5′-(6-methoxy-2-oxo-2,3-dihydro-1H-1,3-benzodiazol-5-yl)-6′-(propan-2-yl)-1,2,3′,5′-tetrahydro-2′H-spiro[indole-3,1′-pyrrolo[3,4-c]pyrrole]-2,3′-dione] were, in that order, 1.77 µM and 4.7 nM.
The matching figures for `CCOC(=O)c1ccc(Cl)cc1N1C(=O)c2cn(-c3ccccc3OC)c(C(C)C)c2C12C(=O)Nc1cc(Cl)ccc12` (stereo not drawn) [Compound 106, ethyl 4-chloro-2-[6-chloro-5′-(2-methoxyphenyl)-2,3′-dioxo-6′-(propan-2-yl)-1,2,3′,5′-tetrahydro-2′H-spiro[indole-3,1′-pyrrolo[3,4-c]pyrrole]-2′-yl]benzoate]: 0.78 µM and 4.2 nM.
In assay [1], `CC(C)c1c2c(nn1CC1CCCN1C(=O)N(C)C)C(=O)N(c1cccc(Cl)c1)C21C(=O)Nc2cc(Cl)ccc21` (stereo not drawn) [Compound 34, 2-[6-chloro-5′-(3-chlorophenyl)-2,6′-dioxo-3′-(propan-2-yl)-1,2,5′,6′-tetrahydro-2′H-spiro[indole-3,4′-pyrrolo [3,4-c]pyrazole]-2′-ylmethyl]-N,N-dimethylpyrrolidine-1-carboxamide] returned a concentration for half-maximal inhibition (IC50) of 24.2 µM. Also, the Ki in assay [2] was determined as 235 nM.
In assay [1], `COc1ccccc1-n1nc2c(c1C1(C)CC1)C1(C(=O)Nc3cc(Cl)ccc31)N(c1cccc(Cl)c1)C2=O` (stereo not drawn) [Compound 26, 6-chloro-5′-(3-chlorophenyl)-2′-(2-methoxyphenyl)-3′-(1-methylcyclopropyl)-1,2,5′,6′-tetrahydro-2′H-spiro[indole-3,4′-pyrrolo[3,4-c]pyrazole]-2,6′-dione] displayed an IC50 of 4.91 µM. The affinity in assay [2], expressed as Ki, was 23 nM.
With `COc1ccc(-n2nc3c(c2C(C)C)C2(C(=O)Nc4cc(Cl)ccc42)N(c2cc(Cl)ccc2C)C3=O)c(OC)n1` (stereo not drawn) [Compound 114, 6-chloro-5′-(5-chloro-2-methylphenyl)-2′-(2,6-dimethoxypyridin-3-yl)-3′-(propan-2-yl)-1,2,5′,6′-tetrahydro-2′H-spiro[indole-3,4′-pyrrolo[3,4-c]pyrazole]-2,6′-dione], 0.29 µM corresponded to half-maximal inhibition in assay [1] (IC50). For the same compound, the Ki in assay [2] was 3.3 nM.
The matching figures for `Cc1ccc(Cl)cc1N1C(=O)c2nn(-c3ccccc3C)c(C(C)C)c2C12C(=O)Nc1cc(Cl)ccc12` (stereo not drawn) [Compound 68, 6-chloro-5′-(5-chloro-2-methylphenyl)-2′-(2-methylphenyl)-3′-(propan-2-yl)-1,2,5′,6′-tetrahydro-2′H-spiro[indole-3,4′-pyrrolo[3,4-c]pyrazole]-2,6′-dione]: 6.35 µM and 46 nM.
The matching figures for `COc1ccc(-n2cc3c(c2C(C)C)C2(C(=O)Nc4cc(Cl)ccc42)N(c2cc(Cl)cnc2C)C3=O)c(OC)c1` (stereo not drawn) [Compound 104, 6-chloro-2′-(5-chloro-2-methylpyridin-3-yl)-5′-(2,4-dimethoxyphenyl)-6′-(propan-2-yl)-1,2,3′,5′-tetrahydro-2′H-spiro[indole-3,1′-pyrrolo[3,4-c]pyrrole]-2,3′-dione]: 0.16 µM and 3.1 nM.
The like results for `COc1ccccc1-n1nc2c(c1C(C)C)C1(C(=O)Nc3cc(Cl)ccc31)N(c1cc(Cl)ccc1C)C2=O` (stereo not drawn) [Compound 31, 6-chloro-5′-(5-chloro-2-methylphenyl)-2′-(2-methoxyphenyl)-3′-(propan-2-yl)-1,2,5′,6′-tetrahydro-2′H-spiro[indole-3,4′-pyrrolo[3,4-c]pyrazole]-2,6′-dione] were, in that order, 0.53 µM and 4.7 nM.
`COc1ccccc1-n1cc2c(c1C(C)C)C1(C(=O)Nc3cc(Cl)ccc31)N(c1cc(Cl)ccc1C(=O)O)C2=O` (stereo not drawn) [Compound 105, 4-chloro-2-[6-chloro-5′-(2-methoxyphenyl)-2,3′-dioxo-6′-(propan-2-yl)-1,2,3′,5′-tetrahydro-2′H-spiro[indole-3,1′-pyrrolo[3,4-c]pyrrole]-2′-yl]benzoic acid] yielded an IC50 in assay [1] of 9.98 µM. Besides, the Ki in assay [2] came out at 4.3 nM.
The like results for `COc1ccc(S(=O)(=O)N2CCOCC2)cc1-n1cc2c(c1C(C)C)C1(C(=O)Nc3cc(Cl)ccc31)N(c1cc(Cl)ccc1C)C2=O` (stereo not drawn) [Compound 112, 6-chloro-2′-(5-chloro-2-methylphenyl)-5′-[2-methoxy-5-(morpholine-4-sulfonyl)phenyl]-6′-(propan-2-yl)-1,2,3′,5′-tetrahydro-2′H-spiro[indole-3,1′-pyrrolo [3,4-c]pyrrole]-2,3′-dione] were, in that order, 0.15 µM and 3.5 nM.
For the compound `COc1sccc1-n1cc2c(c1C(C)C)C1(C(=O)Nc3cc(Cl)ccc31)N(c1cc(Cl)ccc1C)C2=O` (stereo not drawn) [Compound 113, 6-chloro-2′-(5-chloro-2-methylphenyl)-5′-(2-methoxythiophen-3-yl)-6′-(propan-2-yl)-1,2,3′,5′-tetrahydro-2′H-spiro[indole-3,1′-pyrrolo[3,4-c]pyrrole]-2,3′-dione], the IC50 in assay [1] amounted to 0.69 µM. The compound also showed a Ki in assay [2] of 3.4 nM.
Compound `Cc1ccc(Cl)cc1N1C(=O)c2n[nH]c(C3(C)CC3)c2C12C(=O)Nc1cc(Cl)ccc12` (stereo not drawn) [Compound 18, 6-chloro-5′-(5-chloro-2-methylphenyl)-3′-(1-methylcyclopropyl)-1,2,5′,6′-tetrahydro-2′H-spiro[indole-3,4′-pyrrolo [3,4-c]pyrazole]-2,6′-dione] came in with an IC50 in assay [1] of 10.8 µM. For the same compound, in assay [2], the inhibition constant (Ki) is 45 nM.
The like results for `COc1ccccc1-n1nc2c(c1C(C)C)[C@@]1(C(=O)Nc3cc(Cl)ccc31)N(c1cc(Cl)ccc1C)C2=O` [Compound 65, (3S)-6-chloro-5′-(5-chloro-2-methyl-phenyl)-2′-(2-methoxyphenyl)-3′-(propan-2-yl)-1,2,5′,6′-tetrahydro-2′H-spiro[indole-3,4′-pyrrolo[3,4-c]pyrazole]-2,6′-dione] were, in that order, 0.22 µM and 1.9 nM.
The matching figures for `O=C1C(O)=C(C2CCCCC2)C2(C(=O)Nc3cc(Cl)ccc32)N1c1cccc(Cl)c1` (stereo not drawn) [Compound 44, 6-chloro-1′-(3-chlorophenyl)-3′-cyclohexyl-4′-hydroxy-1,1′,2,5′-tetrahydrospiro[indole-3,2′-pyrrole]-2,5′-dione]: 18.1 µM and 281 nM.
The matching figures for `O=C1C(O)=C(c2ccccc2)C2(C(=O)Nc3cc(Cl)ccc32)N1c1cccc(Cl)c1` (stereo not drawn) [Compound 41, 6-chloro-1′-(3-chlorophenyl)-4′-hydroxy-3′-phenyl-1,1′,2,5′-tetrahydrospiro[indole-3,2′-pyrrole]-2,5′-dione]: 21.4 µM and 24 nM.
For the compound `COc1ccccc1-n1nc2c(c1C(C)C)C1(C(=O)Nc3cc(Cl)ccc31)N(c1cncc(Cl)c1)C2=O` (stereo not drawn) [Compound 72, 6-chloro-5′-(5-chloropyridin-3-yl)-2′-(2-methoxyphenyl)-3′-(propan-2-yl)-1,2,5′,6′-tetrahydro-2′H-spiro[indole-3,4′-pyrrolo [3,4-c]pyrazole]-2,6′-dione], in assay [1], the IC50 amounted to 0.89 µM. The Ki in assay [2] is 5.6 nM.
The like results for `COc1ccc(NC(C)=O)cc1-n1cc2c(c1C(C)C)[C@@]1(C(=O)Nc3cc(Cl)ccc31)N(c1cc(Cl)ccc1C)C2=O` [Compound 108, N-{3-[(3S)-6-chloro-2′-(5-chloro-2-methylphenyl)-2,3′-dioxo-6′-(propan-2-yl)-1,2,3′,5′-tetrahydro-2′H-spiro[indole-3,1′-pyrrolo[3,4-c]pyrrole]-5′-yl]-4-methoxyphenyl}acetamide] were, in that order, 0.35 µM and 1.6 nM.
